Experimental data: PMC10320002, “In vitro antiproliferative, anti-inflammatory effects and molecular docking studies of natural compounds isolated from Sarcocephalus pobeguinii (Hua ex Pobég)” (Frontiers in Pharmacology, 2023)
Where “and” joins values, the source holds several entries; their conditions need not be identical. Identical values can stand only once. Like-named read-outs stand apart in the source and are kept apart here.

How the values were obtained:
[1] = tested on: Caco-2 cells; assay: MTT antiproliferation assay, Caco-2; type: cell-based, human; conditions: for IC50: Homo sapiens, Caco-2, 48 h, MTT; for SI values Caco-2: IC50 of non-cancerous Vero cells divided by IC50 of Caco-2
Experimental: Cancerous cell lines (MCF-7: human breast adenocarcinoma cells; HepG2: human hepatocellular carcinoma cells; Caco-2: human epithelial colorectal adenocarcinoma cells; A549: human epithelial lung adenocarcinoma cells), obtained from the American Type Culture Collection (ATCC) (Rockville, MD, United States of America), were cultured in Dulbecco’s Modified Eagle’s Medium (DMEM) high glucose (4.5 g/L) containing L-glutamine (4 mM) and sodium-pyruvate (Hyclone™) supplemented with 10% (v/v) fetal bovine serum (FBS) (Capricorn Scientific GmbH, South America), and incubated at 37°C with 5% CO2 in a humidified environment. African green monkey (Vero) kidney cells (also obtained from ATCC), a non-cancerous cell line, were grown in DMEM high glucose (4.5 g/L) containing L-glutamine (Lonza, Belgium) and supplemented with 5% FBS (Capricorn Scientific GmbH, South America) and 1% gentamicin (Virbac, RSA) in the same environment as cancer cells. The RAW 264.7 murine macrophage cells (obtained from ATCC) were cultured in DMEM high glucose (4.5 g/L) containing L-glutamine (Lonza, Belgium), supplemented with 10% FBS (Capricorn Scientific GmbH, South America) and 1% penicillin/streptomycin/fungizone (PSF) solution, and kept at 37°C in a 5% CO2 humidified environment.
The cancerous and non-cancerous cells were seeded at a density of 10^4 cells per well in 96-well microtiter plates, and they were incubated overnight at 37°C with 5% CO2 in a 5% CO2 humidified environment in order to allow the attachment of cells at the bottom of the plates. Then, the cells were exposed to increasing concentrations of compounds (100, 50, 25, 10 and 5 μg/mL) dissolved in dimethyl sulfoxide (DMSO) and further diluted in fresh culture medium. In this assay, the final concentration of DMSO in the culture medium was 0.5% used as negative control while doxorubicin hydrochloride (Pfizer, United States of America) was used as a positive control. The culture plates were incubated for 48 h at 37°C in a 5% CO2 humidified environment, after which the culture medium was discarded, and replaced by 200 µL of fresh culture medium with 30 µL of 3-(4,5-dimethylthiazol-2-yl)-2,5-diphenyl-2H-tetrazolium bromide (MTT) (5 mg/mL) dissolved in phosphate buffered saline ([Mosmann, 1983]). After 4 h of incubation, the medium was gently removed, and the formazan crystals were solubilized in 50 µL of DMSO. The absorbance was measured at 570 nm after shaking for 1 min on a microplate reader (Synergy Multi-Mode Reader, BioTek, Winooski, United States of America).
The cell viability rate was determined at each concentration of the compound as a percentage of cells treated with DMSO at 0.5% used as negative control. […] The selectivity index (Supporting Material) values were calculated for each compound by dividing the IC50 of non-cancerous cells by the IC50 of cancerous cells in the same units ([Mfotie Njoya et al., 2018]; [Mfotie Njoya et al., 2020]).

[2] = molecular target: T1, 15-LOX (Glycine max, UniProt P08170); assay: Soybean 15-LOX inhibitory assay (FOX); type: biochemical; conditions: linoleic acid 140 μM, pH 7.4, 25°C
T1 construct: purchased Merck, Darmstadt, Germany
T1 sequence (P08170 1-839): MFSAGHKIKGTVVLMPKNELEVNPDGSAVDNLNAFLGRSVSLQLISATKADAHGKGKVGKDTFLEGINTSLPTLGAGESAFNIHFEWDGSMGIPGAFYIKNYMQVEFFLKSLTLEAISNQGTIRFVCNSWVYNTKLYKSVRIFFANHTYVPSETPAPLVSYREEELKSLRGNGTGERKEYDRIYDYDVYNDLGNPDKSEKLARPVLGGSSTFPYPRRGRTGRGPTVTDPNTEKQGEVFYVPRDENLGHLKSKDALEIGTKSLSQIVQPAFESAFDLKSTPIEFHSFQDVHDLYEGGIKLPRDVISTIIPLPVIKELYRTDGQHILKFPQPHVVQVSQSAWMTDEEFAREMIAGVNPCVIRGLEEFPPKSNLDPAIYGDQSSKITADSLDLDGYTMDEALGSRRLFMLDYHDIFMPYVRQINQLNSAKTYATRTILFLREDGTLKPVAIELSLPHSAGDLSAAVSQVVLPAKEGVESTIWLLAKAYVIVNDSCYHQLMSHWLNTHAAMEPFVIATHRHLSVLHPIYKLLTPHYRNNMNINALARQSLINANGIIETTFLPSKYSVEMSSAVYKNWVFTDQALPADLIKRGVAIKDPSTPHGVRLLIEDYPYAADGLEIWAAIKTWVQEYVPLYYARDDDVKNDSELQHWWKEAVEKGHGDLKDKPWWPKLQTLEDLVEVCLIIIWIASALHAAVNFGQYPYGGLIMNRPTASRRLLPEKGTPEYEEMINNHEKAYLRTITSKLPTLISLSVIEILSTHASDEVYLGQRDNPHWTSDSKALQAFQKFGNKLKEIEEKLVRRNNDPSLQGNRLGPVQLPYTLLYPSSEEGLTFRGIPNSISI
Experimental: This assay is based on the formation of the Fe^3+/xylenol orange (FOX) complex with maximal absorption at 560 nm ([Pinto et al., 2007]). Forty microliters of 15-LOX (final concentration: 200 UI/mL) from Glycine max (Merck, Darmstadt, Germany) was incubated with 20 µL of tested samples (100, 50, 25, 10, and 5 μg/mL) at 25°C for 5 min, with DMSO at 10% (v/v) being used as negative control. Thereafter, 40 µL of linoleic acid (final concentration, 140 μM) prepared in Tris-HCl buffer (50 mM, pH 7.4) was added, and the plates were further incubated at 25°C for 20 min in the dark. The assay was terminated by adding 100 μL of FOX reagent [sulfuric acid (30 mM), xylenol orange (100 μM), ferrous II) sulfate (100 μM), dissolved in methanol/water (9:1)], followed by the incubation of the plates at 25°C for 30 min in the dark. Finally, the absorbance was measured at 560 nm on a microplate reader (Epoch, BioTek, Winooski, United States of America). The blanks were made in the same way as tested samples except that the substrate was added after the FOX reagent. The 15-LOX inhibitory activity was calculated by using the following formula: 15−LOX inhibitory activity %=100−Abs sample−Abs blank/Abs negative control−Abs blank×100 (1)

[3] = read-out: IC50 values 15-LOX (converted)

| IC50 [1] | IC50 [2, 3] [µM] | SMILES | SI values Caco-2 [1] | IC50 ([2]; IC50 values 15-LOX) |
| --- | --- | --- | --- | --- |
| 63.2 µg/mL and 205 µM | 253 | C[C@]12COCC=C1C[C@H]1c3[nH]c4ccccc4c3CCN1C2=O [Compound 10, latifoliamide C] | 1.04 |  |
| 7.41 µg/mL and 11.7 µM | > 158 | C[C@@H]1CC[C@]2(C(=O)O)CC[C@]3(C(=O)O)C(=CCC4[C@@]5(C)CC[C@H](O[C@H]6O[C@H](C)[C@@H](O)[C@H](O)[C@H]6O)C(C)(C)C5CC[C@]43C)C2[C@H]1C (stereo partly drawn) [Compound 6, quinovic acid 3-O-[α-D-quinovopyranoside]] | 0.83 |  |
| 53.7 µg/mL and 84.8 µM | 118 | C[C@@H]1CC[C@]2(C(=O)O)CC[C@]3(C(=O)O)C(=CCC4[C@@]5(C)CC[C@H](O[C@@H]6O[C@H](C)[C@@H](O)[C@H](O)[C@H]6O)C(C)(C)C5CC[C@]43C)C2[C@H]1C (stereo partly drawn) [Compound 9, quinovic acid 3-O-[β-D-quinovopyranoside]] | 0.88 |  |

| SMILES | IC50 [1] | IC50 [2, 3] [µM] | SI values Caco-2 [1] | IC50 ([2]; IC50 values 15-LOX) |
| --- | --- | --- | --- | --- |
| CC1(C)CC[C@]2(C(=O)O)CC[C@]3(C)C(=CC[C@@H]4[C@@]5(C)CC[C@H](O)[C@@](C)(CO)[C@@H]5CC[C@]43C)[C@@H]2C1 [Compound 2, hederagenin] | 36.7 µg/mL and 77.6 µM |  | 1.24 | 28.4 µM and 28.2 µM |
